Patent US7530461B2, “Esters of 5-aminolevulinic acid as photosensitizing agents in photochemotherapy” (PhotoCure ASA, priority 1995, dated 2009)
“Also recorded” adds a separate entry of the source. Structures can show the parent of a compound that is named as a salt.

Experiments:
[1] = tested on: normal skin of nu/nu nude mice; assay: Protoporphyrin IX production in the skin of mice by CCD microscopy of biopsies; type: in vivo; details: 20% w/w cream; for time after topical application at which conversion into protoporphyrin IX (PpIX) is seen: normal skin of nu/nu nude mice; for time of maximum PpIX fluorescence after application: topical, 6 hours was the latest time point studied
Protocol: A commercial oil-in-water cream containing (20% w/w) one of the chemicals (free ALA, ALA methylester, ALA ethylester and ALA propylester) (see Example 1) was topically applied to the normal skin of nu/nu nude mice for 0.5, 1, 3 and 6 hours, then biopsied and evaluated by means of microscopic fluorescence photometry incorporating a light-sensitive thermol-electrically cooled charge coupled device (CCD) camera. […] The fluorescence intensity of PpIX in the skin increased with the time of the application and the maximum amounts of the fluorescence were seen about 6 hours (the latest time point studied) after the application in all cases.

normal skin of nude mice [2] = assay: Fluorescence microscopy of mouse skin biopsies after topical application; type: in vivo; details: 1 h after topical application
Protocol: (§1) Treatment procedure. One of the creams was painted on the normal skin at right flank region of each mouse, and covered by a semi-permeable dressing (3M, St Paul, Minn., USA) for various time intervals (from 0.25 to 24 h) before fluorescence measurements in situ or being biopsied for microscopic fluorescence imaging. About 0.2 g cream was applied to an approximate 2.25 cm^2 area of the skin. In the case of i.p. injection the mice were given ALA or its methylester at a dose of 150 mg/kg. At least three mice were used for each condition.
Fluorescence microscopy. After the creams were topically applied to the skin of mice for various times (as indicated above), the skin was biopsied and the frozen tissue sections were cut with a cryostat to a thickness of 8 μm. The fluorescence microscopy was carried out using an Axioplan microscope (Zeiss, Germany) with a 100 W mercury lamp. The fluorescence images were recorded by a light-sensitive thermoelectrically cooled charge coupled device (CCD) camera (resolution: 385×578 pixels with a dynamic range of 16 bits per pixel)(Astromed CCD 3200, Cambridge, UK) and hard copies on a video printer (Sony multiscan video printer UP-930). The filter combination used for detection of porphyrin fluorescence consisted of 390-440 nm excitation filter, a 460 nm beam splitter and a >600 nm emission filter.
II. […] The fluorescence intensity of the porphyrins increased with the time after the application.

[3] = tested on: basal cell carcinoma (BCC) lesions and surrounding normal skin; assay: PpIX fluorescence in human BCC and surrounding normal skin by optical-fiber based system; type: in vivo
Protocol: The PpIX fluorescence in the BCC lesions and surrounding normal skin of human patients was measured in situ by optical-fiber based system after topical application of 20% free ALA and its derivatives for various time intervals.
The PpIX fluorescence ratios between BCC lesions and surrounding normal skin after topical application of ALA or its esters (20% for 4 hours), was examined using methods described in previous examples.

[4] = tested on: BCC lesions and adjacent normal skin; assay: In vivo surface fluorescence of tumor tissue and adjacent normal skin by spectrofluorometer; design: species or system human; details: after 24 hours, surface measurement
Protocol: (§2) In a person presenting multiple ulcero-nodular BCCs lesions were exposed to commercial oil-in-water creams containing either ALA alone (20 k w/w) or ALA methyl ester (20% w/w) (as described in Example 7) covered by a semi-permeable dressing for 24 hours. After removal of dressings and cream in vivo fluorescence was measured at the surface of tumor tissue and adjacent normal skin by means of a spectrofluorometer. Punch biopsies of the same areas were removed and samples were immediately immersed in liquid nitrogen. The tissue sections were cut with a cryostat microtome to a thickness of 8 μm. The localization pattern of the porphyrin fluorescence in the tissue sections was directly observed by means of fluorescence microscopy. The same frozen sections were subsequently stained with routine H&E staining for histological identification.

[5] = tested on: BCC lesions and surrounding normal skin; assay: PpIX production in human BCC and surrounding normal skin by CCD microscopy of biopsies; type: in vivo; details: for distribution of PpIX fluorescence from top to bottom of BCC lesions: patient
Protocol: as §2, with “In a person presenting multiple ulcero-nodular BCCs lesions were exposed to commercial oil-in-water creams containing either ALA alone (20 k w/w) or ALA methyl ester (20% w/w) (as described in Example 7) covered by a semi-permeable dressing for 24 hours.” left out
The same sections were subsequently stained with routine H&E staining for histological identification. Fluorescence microscopy was carried out with an Axioplan microscope (Zeiss, Germany). Fluorescence images and quantitative measurements were performed by a light-sensitive thermol-electrically cooled charge coupled device (CCD) camera (Astromed CCD 3200, Cambridge, UK) and an image processing unit (Astromed/Visilog, PC 486DX2 66 MHz VL). The main purpose for such quantitative measurements is to determine the exact penetration of ALA-induced porphyrins from tissue surface to the bottom layers of cancer lesions. The results are shown in FIGS. 8 and 9 in which the fluorescence intensity is expressed as a function of depth of cancer lesion.
The tests were performed as described in Example 11.
Each of the following figures show both (A) fluorescence images of either the bottom layer of BCC lesions or of the surrounding normal skin. Curves indicating the fluorescence intensity as a function of depth of the BCC lesions or of the normal skin are also shown (B).

[6] = tested on: BCC lesions and adjacent normal skin; assay: Control one week after treatment (cream and light irradiation) of BCC patient; type: in vivo, human
[7] = tested on: WiDr human colonic carcinoma; assay: PDT effect on tumor growth in WiDr human colonic carcinoma-transplanted nude mice; type: in vivo; details: with DF and DMSO
Protocol: Nude mice were transplanted with WiDr human colonic carcinoma cells by subcutaneous injection into the right flank region. […] The responses of the treated tumors were evaluated as tumor regression/regrowth time. When the tumors reached a volume 5 times that of the volume on the day of light irradiation, the mice were killed. (Bars: standard error of mean (SEM) based on 3-5 individual animals in each group).

normal skin of nude mice [8] = assay: In situ measurement of PpIX fluorescence in the skin of mice by an optical-fiber-based system; type: in vivo
normal skin of nude mice [9] = assay: as above; type: in vivo; details: for PpIX fluorescence in normal mouse skin after cream containing the agent alone: without ALA methylester
Protocol: Chemicals. 5-aminolevulinic acid (ALA) methyl-, ethyl- and propyl-esters (H2N—CH2COOCH2—CH2COO—R; R can be CH3, CH2—CH2—CH3) were prepared by Norsk Hydro Research Center (Porsgrunn, Norway) as described in Examples 1 to 3. Free ALA hydrochloride and desferrioxamine mesylate (DF) were purchased from Sigma Chemical Company (St. Louis, Mo., USA). Dimethyl sulphoxide (DMSO) was obtained from Janssen Chimica (Geel, Belgium). Commercial oil-water creams (Unguentum Merck, Darmstadt, Germany) containing 20% one of the ALA ester derivatives (w/w), 20% free ALA, 20% ALA methylester plus 5% DF, 20% ALA methylester plus 20% DMSO, or 20% ALA methylester plus 5% DF and 20% DMSO were freshly prepared prior to use. All creams were made by the Pharmacy at the Norwegian Radium Hospital. For intraperitoneal injection, ALA and its methylester were freshly dissolved in saline. All other chemicals used were of the highest purity commercially available.
Animals. Female Balb/c nu/nu athymic nude mice were obtained from the Animal Laboratory at the Norwegian Radium Hospital and kept under specific-pathogen-free conditions. At the start of the experiments the mice were 6-7 weeks old weighing 18-24 g. Three mice were housed per cage with autoclaved covers in a dark room during the experiments.
as §1
Fluorescence spectroscopic measurements in situ. A perkin Elmer LS-50 fluorescence spectrometer equipped with a red-sensitive photomultiplier (Hamamatsu R 928) was used. This instrument has a pulsed Xenon arc light source and phase sensitive detection, such that fluorescence can be readily measured. Part of the excitation beam (set at 408 nm for fluorescence measurements) was reflected into a 600 μm core multimodus optical quartz fiber (No. 3501 393, Dornier Medizintechnik, GmbH, Germering, Germany) by means of a mirror for application onto the subject through a hand held probe. Emission in the region of 550-750 nm was measured via emission fibres collecting information through the probe.
I. The effect of DF and/or DMSO on the build up of fluorescence in the normal skin of mice in situ was ascertained various times after topical administration of ALA-methylester. Methods were performed as described in Example 9.

[10] = tested on: basal cell carcinomas (BCCs); assay: Topical ALA-based PDT of patients with basal cell carcinomas; type: in vivo, human
[11] = topical application for 4.5 hours
[12] = topical application for 24 hours
[13] = intraperitoneal injection, 150 mg/kg

Structure (SMILES)	time after topical application at which conversion into protoporphyrin IX (PpIX) is seen [1] [h]	time of maximum PpIX fluorescence after application [1]	localization of porphyrin fluorescence in mouse skin (normal skin of nude mice [2])	distribution of PpIX fluorescence from top to bottom of BCC lesions ([5]; 20% w/w cream, 24 hours)	distribution of porphyrin fluorescence in the bottom layer of BCC and surrounding normal skin [5, 12]	fluorescence intensity ratio between BCC and normal skin [5, 12]	porphyrin fluorescence/production in BCC, ALA methyl ester versus free ALA alone [5, 12]	erythema in adjacent normal skin exposed to cream and light irradiation [6]	tumor response in treatment fields [6]	PpIX fluorescence in normal mouse skin after cream containing the agent alone (normal skin of nude mice [9]; topical)	also measured
CCOC(=O)CCC(=O)CN.Cl [ALA ethylester, ethyl 5-aminolevulinate hydrochloride]	0.5	about 6 hours	fluorescence in the epidermis (Ep), epithelial hair follicles and sebaceous gland (arrows), but not in the dermis (De)								
COC(=O)CCC(=O)CN.Cl [ALA methylester, methyl 5-aminolevulinate hydrochloride]	0.5	about 6 hours	fluorescence in the epidermis (Ep), epithelial hair follicles and sebaceous gland (arrows), but not in the dermis (De)	homogeneous distribution of PpIX fluorescence	uniform distribution	about 2	almost twice as high	only moderate erythema	central necrotic area corresponding to the tumor		PpIX fluorescence ratios between BCC lesions and surrounding normal skin (selectivity) compared with free ALA ([3]; 20% for 4 hours, topical): more selectively induce PpIX in BCC lesions than free ALA; PpIX build-up, amount and localization in BCC lesions compared to free ALA ([3]; 20% topical, various time intervals, human patients): built up faster, produced more and localized more selectively in the BCC lesions; in vivo fluorescence intensity in tumors compared to ALA [4]: at least doubled fluorescence intensity; increase of in vivo fluorescence in corresponding normal tissues compared to ALA [4]: about 50%; PpIX fluorescence in the surrounding normal skin ([5]; 20% w/w cream, 24 hours): no PpIX fluorescence was seen in the surrounding normal skin; distribution of porphyrin fluorescence in the bottom layer of BCC [5, 11]: homogenous distribution; fluorescence intensity ratio between BCC and normal skin [5, 11]: about 2; porphyrin fluorescence/production in BCC, ALA methyl ester versus free ALA and 20% DMSO [5, 11]: higher than that induced by free ALA and 20% DMSO; slowing of tumor regrowth compared with ALA [7]: more effective than ALA in slowing tumor regrowth; decrease of skin fluorescence compared with free ALA (normal skin of nude mice [8]; [13]): the fluorescence decreased faster in the case of the ester than in the case of the free ALA; time at which PpIX fluorescence disappeared post injection (normal skin of nude mice [8]; [13]): ≤ 10 h; time at which PpIX fluorescence in the skin was built up after injection (normal skin of nude mice [8]; [13]): 15 min; time of peak PpIX fluorescence in the skin after injection (normal skin of nude mice [8]; [13]): around 4 hours
CCCOC(=O)CCC(=O)CN.Cl [ALA propylester, n-propyl 5-aminolevulinate hydrochloride]	0.5	about 6 hours	fluorescence in the epidermis (Ep), epithelial hair follicles and sebaceous gland (arrows), but not in the dermis (De)								
NCC(=O)CCC(=O)O [ALA, 5-aminolevulinic acid]	0.5	about 6 hours	fluorescence in the epidermis (Ep), epithelial hair follicles and sebaceous gland (arrows), but not in the dermis (De)	homogeneous distribution of PpIX fluorescence	homogenous distribution	about 1	less than that in the case of ALA methyl ester	marked erythema	central necrotic area corresponding to the tumor		time after topical application at which PpIX fluorescence was built up (normal skin of nude mice [9]; 20% cream, normal skin of nude mice): 1.5 h; complete response rate of nodular BCCs [10]: low complete response rate; superficial BCCs showing complete regression ([10]; past five years): more than 90%; PpIX fluorescence in other areas of the skin and internal organs (ear, dermis, muscle, brain, liver) (normal skin of nude mice [8]; 14 hours after topical application, listed as free ALA): a strong fluorescence was also seen in the ear as well as in the other areas of the skin; also recorded: a strong fluorescence of free ALA-induced porphyrins was found in regions of the skin outside the area where the cream was topically applied
CC(=O)N(O)CCCCCNC(=O)CCC(=O)N(O)CCCCCNC(=O)CCC(=O)N(O)CCCCCN [DF, desferrioxamine mesylate]										some fluorescence of PpIX	effect on production of ALA methylester-induced PpIX (normal skin of nude mice [9]; topical, with 20% ALA methylester cream, normal mouse skin): significantly enhanced; also recorded: significant effect in enhancing the production
C[S+](C)[O-] [DMSO, Dimethyl sulphoxide]										did not show any fluorescence	
